How the values were obtained:
[1] = test system: CFBE cells expressing F508del-CFTR; assay: Cellular toxicity in CFBE cells during dose-response WB assay; assay type: cell-based, human; settings: concentrations higher than 1 μM
GRK5 = settings: covalent binding; cited from earlier work
GRK2 [2] = target: T1, GRK2 (Homo sapiens, UniProt P25098); settings: GRK5 over GRK2; cited from earlier work
T1 sequence (P25098 1-689): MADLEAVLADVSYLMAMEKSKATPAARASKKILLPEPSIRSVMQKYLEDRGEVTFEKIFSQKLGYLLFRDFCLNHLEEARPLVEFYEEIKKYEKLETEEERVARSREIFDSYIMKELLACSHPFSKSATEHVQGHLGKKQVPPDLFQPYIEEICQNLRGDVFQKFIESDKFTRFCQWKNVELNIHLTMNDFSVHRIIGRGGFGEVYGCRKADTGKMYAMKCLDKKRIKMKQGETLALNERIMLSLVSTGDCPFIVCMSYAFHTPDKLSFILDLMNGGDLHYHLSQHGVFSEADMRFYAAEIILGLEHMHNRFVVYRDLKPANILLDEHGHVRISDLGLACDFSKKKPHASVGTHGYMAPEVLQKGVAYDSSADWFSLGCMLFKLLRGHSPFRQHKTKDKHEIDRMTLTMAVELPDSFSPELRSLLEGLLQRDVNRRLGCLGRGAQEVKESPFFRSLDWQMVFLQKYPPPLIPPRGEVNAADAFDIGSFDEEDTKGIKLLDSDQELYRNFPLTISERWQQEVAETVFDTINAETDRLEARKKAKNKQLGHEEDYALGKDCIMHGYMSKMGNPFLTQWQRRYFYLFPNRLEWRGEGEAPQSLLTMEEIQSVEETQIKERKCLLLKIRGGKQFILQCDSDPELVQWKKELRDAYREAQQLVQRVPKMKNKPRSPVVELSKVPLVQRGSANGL

F508del-CFTR [3] = target: T2, F508del-CFTR (Homo sapiens, UniProt P13569, DEL508-508); assay: Western blot of F508del-CFTR processing (bands B and C) in CFBE cells; assay type: cell-based; settings: for F508del-CFTR band C rescue: CFBE cells stably expressing F508del-CFTR, vs DMSO, n=3; for additivity to CFTR correctors, bands C and B: 1 μM with VX-661 (5 μM), VX-445 (3 μM) or VX-661+VX-445, n=4; for CFTR processing [C/(B+C)]: dose-response 0-1 μM, proportional increase in band B
T2 construct: expressed in transfected cells; host or cells: CFBE41o- cells constitutively (stably) expressing F508del-CFTR

F508del-CFTR [4] = target: T2, F508del-CFTR; assay: Halide-sensitive YFP fluorescence quenching in CFBE cells expressing F508del-CFTR; assay type: cell-based; settings: for additivity to CFTR correctors, HS-YFP quenching rate (F508del-CFTR functional rescue): 1 μM with VX-661 (5 μM), VX-445 (3 μM) or VX-661+VX-445, n=4
Description: CFBE41o- cells constitutively co-expressing the HS-yellow fluorescent protein (HS-YFP) YFP-H148Q/I152L as well as wt- or F508del-CFTR (described in (Sondo et al., 2011)) were a kind gift from Dr Nicoletta Pedemonte (IRCCS Istituto G. Gaslini, Genoa, Italy). These cells were cultured in Minimum Essential Medium (MEM) supplemented with 10% FBS, 2 mM L-glutamine, puromycin 2 μg/ml and G418 […] (Sigma, #A1720) at 37° C. in 5% CO2.
This assay was used to assess whether the enhanced F508del-CFTR traffic recorded when the reporter cell line was transfected with confirmed hit siRNAs also corresponded to enhanced F508del-CFTR ionic transport function. As in the microscopy-based screens, a 72 h siRNA transfection time was selected. The assay followed a previously reported protocol (Sondo et al., 2011). CFBE cells co-expressing HS-YFP and wt- or F508del-CFTR were grown to confluency (37° C., 5% CO2) and split to 50% confluency. On the following day, the experiment was initiated by seeding cells onto siRNA-coated 96 well plates using a peristaltic pump (ThermoFisher Multidrop™ Combi). Each well was seeded with 10,000 cells. […] After the stimulation period, each plate was transferred to a fluorescence plate reader equipped with fast reagent injectors (Tecan Infinite F200 Pro) and excitation (BP 475-495 nm) and emission ([…]) filters suitable for YFP fluorescence. Each assay consisted of a continuous 16 s fluorescence reading with 2 s before and 14 s after injection of 160 μl of a PBS where Cl^− had been replaced by I^− (final I^− concentration in the well: 100 mM). The pH of all PBS-containing solutions was rigorously set at pH 7.4 immediately before use to avoid artifacts in the fluorescence reading. The resulting kinetics was background subtracted and normalized to the pre-injection fluorescence value. To determine the fluorescence quenching rate associated with I^− influx, the final 14 s of the kinetics in each well were fitted with a single decay exponential curve and the derivative at the injection time (i.e. the quenching rate) was extracted from the curve parameters. […]

PKA = settings: statement in words; cited from earlier work
GRK1 = target: T3, GRK1 (Bos taurus, UniProt P28327); settings: cited from earlier work
T3 sequence (P28327 1-561): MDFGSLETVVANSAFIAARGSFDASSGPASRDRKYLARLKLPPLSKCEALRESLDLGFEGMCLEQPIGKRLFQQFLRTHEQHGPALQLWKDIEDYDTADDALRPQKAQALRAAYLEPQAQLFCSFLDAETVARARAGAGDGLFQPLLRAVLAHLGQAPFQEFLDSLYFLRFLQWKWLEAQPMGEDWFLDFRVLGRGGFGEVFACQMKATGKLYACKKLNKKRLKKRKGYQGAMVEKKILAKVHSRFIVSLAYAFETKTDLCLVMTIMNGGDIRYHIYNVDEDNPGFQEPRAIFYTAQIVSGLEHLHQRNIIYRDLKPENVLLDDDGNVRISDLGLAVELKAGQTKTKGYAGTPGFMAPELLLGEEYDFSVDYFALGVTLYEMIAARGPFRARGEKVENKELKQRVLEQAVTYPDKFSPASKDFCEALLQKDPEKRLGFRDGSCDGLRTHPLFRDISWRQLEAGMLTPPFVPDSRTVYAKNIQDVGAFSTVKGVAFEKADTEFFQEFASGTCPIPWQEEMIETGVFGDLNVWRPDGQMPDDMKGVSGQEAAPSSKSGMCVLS

GRK2 [5] = settings: cited from earlier work
[6] = listed as (R,Z)-3-((4-(2-Bromoacetamido)-3,5-dimethyl-1H-pyrrol-2-yl)-methylene)-2-oxo-N-

T2 sequence (P13569 with tags, fused parts or gaps DEL508-508): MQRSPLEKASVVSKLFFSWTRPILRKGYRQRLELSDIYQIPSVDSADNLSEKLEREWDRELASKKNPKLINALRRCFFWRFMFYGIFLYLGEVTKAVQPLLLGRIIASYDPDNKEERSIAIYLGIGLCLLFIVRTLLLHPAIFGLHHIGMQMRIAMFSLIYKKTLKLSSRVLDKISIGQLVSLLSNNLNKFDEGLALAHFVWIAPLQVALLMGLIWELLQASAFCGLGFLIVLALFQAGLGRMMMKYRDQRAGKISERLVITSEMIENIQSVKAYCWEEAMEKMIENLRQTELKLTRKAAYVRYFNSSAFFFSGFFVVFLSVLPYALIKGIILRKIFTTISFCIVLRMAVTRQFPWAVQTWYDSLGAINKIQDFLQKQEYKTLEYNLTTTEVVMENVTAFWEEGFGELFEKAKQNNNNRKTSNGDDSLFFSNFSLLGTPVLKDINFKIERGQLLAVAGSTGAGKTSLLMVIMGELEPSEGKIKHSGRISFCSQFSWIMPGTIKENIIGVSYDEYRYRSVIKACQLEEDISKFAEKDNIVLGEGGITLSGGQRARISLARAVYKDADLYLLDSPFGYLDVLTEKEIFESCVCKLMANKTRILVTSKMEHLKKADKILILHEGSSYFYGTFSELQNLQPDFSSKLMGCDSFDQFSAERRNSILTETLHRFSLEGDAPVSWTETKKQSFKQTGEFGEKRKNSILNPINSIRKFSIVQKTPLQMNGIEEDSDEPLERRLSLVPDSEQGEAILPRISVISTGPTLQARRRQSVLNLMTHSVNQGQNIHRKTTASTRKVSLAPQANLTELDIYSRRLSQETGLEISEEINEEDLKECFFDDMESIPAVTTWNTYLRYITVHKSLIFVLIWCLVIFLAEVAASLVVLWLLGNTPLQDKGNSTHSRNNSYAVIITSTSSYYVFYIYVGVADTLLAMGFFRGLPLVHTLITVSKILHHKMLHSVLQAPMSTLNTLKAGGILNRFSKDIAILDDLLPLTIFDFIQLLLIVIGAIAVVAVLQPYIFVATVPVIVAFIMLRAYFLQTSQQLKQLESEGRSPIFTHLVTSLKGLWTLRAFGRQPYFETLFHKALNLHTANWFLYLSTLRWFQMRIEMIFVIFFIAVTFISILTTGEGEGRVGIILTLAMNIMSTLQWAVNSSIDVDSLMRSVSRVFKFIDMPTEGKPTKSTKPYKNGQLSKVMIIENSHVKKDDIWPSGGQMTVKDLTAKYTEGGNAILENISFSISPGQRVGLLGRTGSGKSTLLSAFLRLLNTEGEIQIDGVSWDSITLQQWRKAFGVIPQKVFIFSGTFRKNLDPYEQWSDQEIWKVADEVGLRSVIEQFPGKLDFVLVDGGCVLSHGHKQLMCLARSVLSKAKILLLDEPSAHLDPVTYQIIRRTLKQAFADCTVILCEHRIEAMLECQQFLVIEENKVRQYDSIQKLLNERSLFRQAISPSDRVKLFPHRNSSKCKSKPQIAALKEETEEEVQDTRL

## Cc1[nH]c(/C=C2\C(=O)Nc3ccc(C(=O)N[C@H](C)c4ccccc4)cc32)c(C)c1NC(=O)CBr [9 g, (R,Z)-3-((4-(2-Bromoacetamido)-3,5-dimethyl-1H-pyrrol-2-yl)-methylene)-2-oxo-N-(1-phenylethyl)indoline-5-carboxamide]
[1]
  cellular toxicity: cellular toxicity
GRK5
  IC50: 8.6 nM
GRK2 [2]
  selectivity against GRK2: 1400 fold
F508del-CFTR [3]; 0.3 μM
  F508del-CFTR band C rescue: Statistically significant band C rescue
F508del-CFTR [3]; 0.3 μM, listed as (R,Z)-3-((4-(2-Bromoacetamido)-3,5-dimethyl-1H-pyrrol-2-yl)-methylene)-2-oxo-N-
  F508del-CFTR band C rescue: statistically significant band C rescue
F508del-CFTR [3]
  additivity to CFTR correctors, bands C and B: additive to all corrector treatments regarding bands C and B
  CFTR processing [C/(B+C)]: not significantly changed
F508del-CFTR [3]; [6]
  additivity to CFTR correctors, bands C and B: additivity
  CFTR processing [C/(B+C)]: without improved CFTR processing
F508del-CFTR [3]; 1.0 μM
  F508del-CFTR band C rescue: Statistically significant band C rescue
F508del-CFTR [3]; 1.0 μM, listed as (R,Z)-3-((4-(2-Bromoacetamido)-3,5-dimethyl-1H-pyrrol-2-yl)-methylene)-2-oxo-N-
  F508del-CFTR band C rescue: statistically significant band C rescue
F508del-CFTR [3]; at 0.3 and 1.0 μM
  band C rescue relative to VX-661: 50 % of VX-661
F508del-CFTR [3]; low micromolar concentrations
  F508del-CFTR processing rescue: significant F508del-CFTR processing and function rescue
F508del-CFTR [3]; low micromolar concentrations, VX-809, VX-445 and VX-661
  additivity of rescue to correctors (summary statement): additive to VX-809, VX-445 and VX-661
F508del-CFTR [4]
  additivity to CFTR correctors, HS-YFP quenching rate (F508del-CFTR functional rescue): additive to all corrector treatments regarding F508del-CFTR functional rescue
F508del-CFTR [4]; [6]
  additivity to CFTR correctors, HS-YFP quenching rate (F508del-CFTR functional rescue): additivity in all conditions
F508del-CFTR [4]; low micromolar concentrations
  F508del-CFTR function rescue: significant F508del-CFTR processing and function rescue

## CC1=C(C(=O)Nc2ccc3[nH]ncc3c2)C(c2ccc(F)c(C(=O)NCc3ccccn3)c2)NC(=O)N1 (stereo not drawn) [CCG215022]
PKA
  effect on PKA: does not affect
GRK1
  IC50: 3900 ± 1000 nM
GRK1; statement in words
  effect on GRK1: does not affect
GRK2 [5]
  IC50: 150 ± 70 nM

Source: patent US20250130221A1, “METHOD OF IDENTIFYING AGENTS FOR THE TREATMENT OF CYSTIC FIBROSIS CAUSED BY THE MUTATION F508DEL” (FACULDADE DE CIÊNCIAS DA UNIVERSIDADE DE LISBOA, priority 2022, published 2025)
